In brackets after ≈: the same amount, converted by molar mass. Read-outs that look alike come from different tables or passages of the source.
Experiments:
[1] = 24 h, pH 7.4
[2] = In vitro plasma stability; conditions: for stability in blood plasma (in words): mouse plasma, measured time span 120 min; for half-life at 2 µM: mouse, plasma
in vitro = conditions: mouse, microsomes, pH 7.4
3CL^pro = conditions: viral protease 3CLpro, cited from earlier work; for IC50: in vitro
SARS-CoV-2 RdRp = SARS-CoV-2 RdRp (Severe acute respiratory syndrome coronavirus 2, UniProt P0DTD1); assay: biochemical; conditions: for inhibition at 25 µM / inhibition at 100 µM: SARS-CoV-2 RdRp; for inhibition at 25 µM: compound at 25 µM, read-out: % inhib 25 µM; for inhibition at 100 µM: compound at 100 µM, read-out: % inhib 100 µM
[3] = Aqueous kinetic solubility in PBS pH 7.4; conditions: PBS neutral buffer pH 7.4, 25 °C, 24 h, target 250 µM, 2.5% DMSO
M^pro = conditions: cited from earlier work
NTPase/helicase = conditions: cited from earlier work

SMILES | kinetic solubility (Sk) [1] | stability in blood plasma (in words) [2] | half-life at 2 µM [2] | half-life at 4.6 µM (in vitro) | IC50 (3CL^pro) | IC50 (SARS-CoV-2 RdRp) | inhibition at 25 µM (SARS-CoV-2 RdRp) | inhibition at 100 µM (SARS-CoV-2 RdRp) | Ki (3CL^pro) | kinetic solubility (Sk) [3] | activity against SARS-CoV Mpro (M^pro) | activity against SARS-CoV NTPase/helicase (NTPase/helicase)
O=c1cc(-c2ccc(O)c(O)c2)oc2cc(O)cc(O)c12 [Luteolin, luteolin] | 21 ± 4 µM (≈ 6.01 µg/mL) | stable in the measured time span | > 2 h | > 1 h | 20 µM | 4.6 ± 0.3 µM | 89% | 100% |  |  |  | 
O=c1c(O)c(-c2ccc(O)c(O)c2)oc2cc(O)cc(O)c12 [Quercetin, quercetin] |  | poorly stable | 0.117 ± 0.0333 h | > 1 h | 24 µM |  | 81% | 100% | ~7 µM | 16 ± 5 µM (≈ 4.84 µg/mL) | active | active
